According to patent US8895753B2, “S1P receptor modulating agent” (Meiji Seika Pharma Co., Ltd., priority 2011, dated 2014):

How the values were obtained:
[1] = target: T1, Human S1P1 receptor (Homo sapiens, UniProt P21453); test: Agonist activity at an S1P1 receptor ([35S]-GTPγS exchange reaction, membrane fractions); format: biochemical; conditions: read-out: EC50, agonist activity at S1P1 receptor (GTP exchange reaction)
Protocol: (§1) By using membrane fractions prepared from a human S1P1 receptor expressing cells (Multispan Ltd.), the agonist activity of each test compound was measured by [^35S]-GTPγS exchange reaction in accordance with a standard procedure (Methods in Molecular Biology, Vol. 552, p 143-151 (2009)), and EC50 (nM) of each test compound was computed.

[2] = target: Human S1P3 receptor (Homo sapiens, UniProt Q99500); test: Agonist activity at an S1P3 receptor ([35S]-GTPγS exchange reaction at 1000 nM); format: biochemical; conditions: read-out: percent of the maximal agonist activity at S1P3 receptor
Protocol: as §1
By using membrane fractions prepared from Human S1P3 receptor expressing cells (Multispan Inc.), the agonist activity of the compound in the present invention was measured by a [^35S]-GTPγS exchange reaction at 1000 nM by the similar method of the Experimental Example 2.

[3] = target: T2, Human S1P4 receptor (Homo sapiens, UniProt O95977); test: Agonist activity at an S1P4 receptor (calcium influx); format: cell-based; conditions: at 1000 nM; read-out: activity at S1P4 receptor (elevation of intracellular calcium)
T2 sequence (O95977 1-384): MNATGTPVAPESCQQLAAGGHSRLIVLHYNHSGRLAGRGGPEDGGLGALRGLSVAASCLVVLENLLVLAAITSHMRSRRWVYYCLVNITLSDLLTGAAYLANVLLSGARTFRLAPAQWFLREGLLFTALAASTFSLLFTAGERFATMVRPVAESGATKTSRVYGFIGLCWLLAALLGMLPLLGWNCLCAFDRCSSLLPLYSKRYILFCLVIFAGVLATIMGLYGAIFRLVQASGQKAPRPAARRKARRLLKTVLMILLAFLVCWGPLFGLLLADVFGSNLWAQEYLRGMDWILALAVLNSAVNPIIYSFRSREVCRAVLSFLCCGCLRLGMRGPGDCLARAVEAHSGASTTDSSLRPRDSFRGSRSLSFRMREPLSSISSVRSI
Protocol: By using Human S1P4 receptor expressing cells (Multispan Inc. CG1052-1), the elevation of intracellular calcium concentration via agonist activity by the addition of 1000 nM was measured by Fret method (fluorescence resonance energy transfer).

[4] = target: T1, Human S1P1 receptor; test: Agonist activity at an S1P1 receptor (reporter assay, EDG1-bla/U2OS cells); format: cell-based; set-up: host or cells: U2OS (EDG1-bla/U2OS); conditions: S1P maximum response = 100%
Protocol: Human S1P1 receptor gene recombinant EDG1-bla/U2OS cells (Life Technologies Japan Ltd.) were plated in a 96-well half-sized clear bottom black plate at a density of 10000 cells/32 μL/well, and then the plate was incubated at 37° C. in a 5% CO2 incubator for 48 hours. A culture medium containing each test compound prepared as a 5× concentrate was added at 8 μL/well, and the plate was incubated at 37° C. in a 5% CO2 incubator for 5 hours. The substrate (LiveBLAzer™-FRET B/G substrate (CCF4-AM), Life Technologies Japan Ltd.) prepared as a 6× concentrate was added at 8 μL into each well, and the plate was incubated at room temperature for 2 hours in the dark. The fluorescence intensity of each well was detected using a bottom-reading fluorescence microplate reader (EnVision: ParkinElmer) at one excitation wavelength and 2 wavelengths for fluorescence emission (Ex409 nm, Em460 nm, Em530 nm). The intensity ratio of fluorescence at 460 nm/530 nm was calculated for each well. The maximum response ratio confirmed from the dose response of SIP was expressed as 100%. The concentration of a test compound required to stimulate 50% of its maximal activation was computed as EC50 (nM).

Sequence of Human S1P3 receptor (Q99500 whole entry): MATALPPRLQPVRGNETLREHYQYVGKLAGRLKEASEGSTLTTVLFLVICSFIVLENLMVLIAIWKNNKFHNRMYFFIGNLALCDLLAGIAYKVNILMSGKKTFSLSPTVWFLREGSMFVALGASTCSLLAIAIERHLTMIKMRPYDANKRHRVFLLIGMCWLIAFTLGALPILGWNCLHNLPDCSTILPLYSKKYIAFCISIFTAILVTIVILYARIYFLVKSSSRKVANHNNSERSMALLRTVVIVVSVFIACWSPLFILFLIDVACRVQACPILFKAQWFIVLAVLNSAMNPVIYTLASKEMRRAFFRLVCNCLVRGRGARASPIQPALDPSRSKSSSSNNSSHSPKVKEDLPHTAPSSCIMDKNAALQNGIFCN
T1 sequence (P21453 whole entry): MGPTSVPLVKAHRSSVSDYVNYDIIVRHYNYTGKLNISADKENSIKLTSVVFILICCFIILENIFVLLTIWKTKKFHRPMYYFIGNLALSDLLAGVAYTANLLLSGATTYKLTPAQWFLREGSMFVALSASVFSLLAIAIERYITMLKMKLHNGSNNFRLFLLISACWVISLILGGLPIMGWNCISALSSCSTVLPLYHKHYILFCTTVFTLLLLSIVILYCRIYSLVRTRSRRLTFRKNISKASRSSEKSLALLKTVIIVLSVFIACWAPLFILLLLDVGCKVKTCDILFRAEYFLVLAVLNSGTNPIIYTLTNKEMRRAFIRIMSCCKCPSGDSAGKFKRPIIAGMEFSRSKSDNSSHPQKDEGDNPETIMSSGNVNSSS

## CCOc1ccc(-c2cnc(-c3ccc(CN4CC(C(=O)O)C4)cc3)s2)cc1 [Example 31, 1-(4-(5-(4-ethoxyphenyl)thiazol-2-yl)benzyl)azetidine-3-carboxylic acid]
[1]
  EC50: ≤ 50 nM
[2]
  Emax at 1 µM: < 20%
[3]
  activation at 1 µM: < 20%
[4]
  EC50: ≤ 100 nM

## O=C(O)C1CN(Cc2ccc(-c3ncc(-c4ccc(C5CCCC5)cc4)s3)cc2)C1 [Example 34, 1-(4-(5-(4-cyclopentylphenyl)thiazol-2-yl)benzyl)azetidine-3-carboxylic acid]
[1]
  EC50: ≤ 10 nM
[2]
  Emax at 1 µM: < 20%
[3]
  activation at 1 µM: < 20%
[4]
  EC50: ≤ 1 nM

## O=C(O)C1CN(Cc2ccc(-c3ncc(-c4ccc(C5CCCCC5)cc4)s3)cc2)C1 [Example 36, 1-(4-(5-(4-cyclohexylphenyl)thiazol-2-yl)benzyl)azetidine-3-carboxylic acid]
[1]
  EC50: ≤ 100 nM
[2]
  Emax at 1 µM: < 20%
[3]
  activation at 1 µM: < 20%
[4]
  EC50: ≤ 10 nM

## Cc1cc(CN2CC(C(=O)O)C2)ccc1-c1ncc(-c2ccc(OC(C)C)c(Cl)c2)s1 [Example 37, 1-(4-(5-(3-chloro-4-isopropoxyphenyl)thiazol-2-yl)-3-methylbenzyl)azetidine-3-carboxylic acid]
[1]
  EC50: ≤ 10 nM
[2]
  Emax at 1 µM: 20 to 50%
[3]
  activation at 1 µM: < 20%
[4]
  EC50: ≤ 1 nM

## CCCOc1ccc(-c2cnc(-c3ccc(CN4CC(C(=O)O)C4)cc3)s2)cc1 [Example 38]
[1]
  EC50: ≤ 50 nM
[2]
  Emax at 1 µM: < 20%
[3]
  activation at 1 µM: < 20%
[4]
  EC50: ≤ 100 nM

## CCCc1ccc(-c2cnc(-c3ccc(CN4CC(C(=O)O)C4)cc3)s2)cc1 [Example 45, 1-(4-(5-(4-propylphenyl)thiazol-2-yl)benzyl)azetidine-3-carboxylic acid]
[1]
  EC50: ≤ 50 nM
[2]
  Emax at 1 µM: < 20%
[3]
  activation at 1 µM: < 20%
[4]
  EC50: ≤ 10 nM

## CC(C)c1ccc(-c2cnc(-c3ccc(CN4CC(C(=O)O)C4)cc3)s2)cc1 [Example 46, 1-(4-(5-(4-isopropylphenyl)thiazol-2-yl)benzyl)azetidine-3-carboxylic acid]
[1]
  EC50: ≤ 50 nM
[2]
  Emax at 1 µM: < 20%
[3]
  activation at 1 µM: < 20%
[4]
  EC50: ≤ 10 nM

## CCCCc1ccc(-c2cnc(-c3ccc(CN4CC(C(=O)O)C4)cc3)s2)cc1 [Example 47, 1-(4-(5-(4-butylphenyl)thiazol-2-yl)benzyl)azetidine-3-carboxylic acid]
[1]
  EC50: ≤ 50 nM
[2]
  Emax at 1 µM: < 20%
[3]
  activation at 1 µM: < 20%
[4]
  EC50: ≤ 10 nM

## CC(C)Cc1ccc(-c2cnc(-c3ccc(CN4CC(C(=O)O)C4)cc3)s2)cc1 [Example 48, 1-(4-(5-(4-isobutylphenyl)thiazol-2-yl)benzyl)azetidine-3-carboxylic acid]
[1]
  EC50: ≤ 50 nM
[2]
  Emax at 1 µM: 20 to 50%
[3]
  activation at 1 µM: < 20%
[4]
  EC50: ≤ 1 nM

## CC(C)Oc1ccc(-c2cnc(-c3ccc(CN4CC(C(=O)O)C4)cc3)s2)cc1C#N [Example 50, 1-(4-(5-(3-cyano-4-isopropoxyphenyl)thiazol-2-yl)benzyl)azetidine-3-carboxylic acid]
[1]
  EC50: ≤ 50 nM
[2]
  Emax at 1 µM: 20 to 50%
[3]
  activation at 1 µM: < 20%
[4]
  EC50: ≤ 1 nM

## O=C(O)C1CN(Cc2ccc(-c3ncc(-c4ccc(OC5CCC5)cc4)s3)cc2)C1 [Example 51, 1-(4-(5-(4-cyclobutoxyphenyl)thiazol-2-yl)benzyl)azetidine-3-carboxylic acid]
[1]
  EC50: ≤ 500 nM
[2]
  Emax at 1 µM: 20 to 50%
[3]
  activation at 1 µM: < 20%
[4]
  EC50: ≤ 100 nM

## Cc1cc(-c2cnc(-c3ccc(CN4CC(C(=O)O)C4)cc3)s2)ccc1OC(C)C [Example 52, 1-(4-(5-(4-isopropoxy-3-methylphenyl)thiazol-2-yl)benzyl)azetidine-3-carboxylic acid]
[1]
  EC50: ≤ 50 nM
[2]
  Emax at 1 µM: 20 to 50%
[3]
  activation at 1 µM: < 20%
[4]
  EC50: ≤ 1 nM

## CC(C)Oc1ccc(-c2cnc(-c3ccc(CN4CC(C(=O)O)C4)cc3)s2)cc1F [Example 53, 1-(4-(5-(3-fluoro-4-isopropoxyphenyl)thiazol-2-yl)benzyl)azetidine-3-carboxylic acid]
[1]
  EC50: ≤ 500 nM
[2]
  Emax at 1 µM: 20 to 50%
[3]
  activation at 1 µM: < 20%
[4]
  EC50: ≤ 10 nM

## CC(C)Oc1ccc(-c2cnc(-c3ccc(CN4CC(C(=O)O)C4)cc3)s2)c(C(F)(F)F)c1 [Example 55, 1-(4-(5-(4-isopropoxy-2-(trifluoromethyl)phenyl)thiazol-2-yl)benzyl)azetidine-3-carboxylic acid]
[1]
  EC50: ≤ 500 nM
[2]
  Emax at 1 µM: < 20%
[3]
  activation at 1 µM: < 20%
[4]
  EC50: ≤ 10 nM

## CC(C)Oc1ccc(-c2cnc(-c3ccc(CN4CC(C(=O)O)C4)cc3)s2)cc1C(F)(F)F [Example 56, 1-(4-(5-(4-isopropoxy-3-(trifluoromethyl)phenyl)thiazol-2-yl)benzyl)azetidine-3-carboxylic acid]
[1]
  EC50: ≤ 100 nM
[2]
  Emax at 1 µM: 20 to 50%
[3]
  activation at 1 µM: < 20%
[4]
  EC50: ≤ 1 nM

## CC(C)Oc1ccc(-c2cnc(-c3ccc(CN4CC(C(=O)O)C4)c(F)c3)s2)cc1Cl [Example 57, 1-(4-(5-(3-chloro-4-isopropoxyphenyl)thiazol-2-yl)-2-fluorobenzyl)azetidine-3-carboxylic acid]
[1]
  EC50: ≤ 50 nM
[2]
  Emax at 1 µM: < 20%
[3]
  activation at 1 µM: < 20%
[4]
  EC50: ≤ 1 nM

## CC(C)Oc1ccc(-c2cnc(-c3ccc(CN4CC(C(=O)O)C4)c(C(F)(F)F)c3)s2)cc1Cl [Example 58, 1-(4-(5-(3-chloro-4-isopropoxyphenyl)thiazol-2-yl)-2-(trifluoromethyl)benzyl)azetidine-3-carboxylic acid]
[1]
  EC50: ≤ 50 nM
[2]
  Emax at 1 µM: < 20%
[3]
  activation at 1 µM: < 20%
[4]
  EC50: ≤ 1 nM

## CC(C)Cc1ccc(-c2cnc(-c3ccc(CN4CC(C(=O)O)C4)cc3F)s2)cc1C#N [Example 59, 1-(4-(5-(3-cyano-4-isobutylphenyl)thiazol-2-yl)-3-fluorobenzyl)azetidine-3-carboxylic acid]
[1]
  EC50: ≤ 50 nM
[2]
  Emax at 1 µM: < 20%
[3]
  activation at 1 µM: < 20%
[4]
  EC50: ≤ 1 nM

## CC(C)Oc1ccc(-c2cnc(-c3ccc(CN4CC(C(=O)O)C4)cc3Cl)s2)cc1Cl [Example 60, 1-(3-chloro-4-(5-(3-chloro-4-isopropoxyphenyl)thiazol-2-yl)benzyl)azetidine-3-carboxylic acid]
[1]
  EC50: ≤ 10 nM
[2]
  Emax at 1 µM: 20 to 50%
[3]
  activation at 1 µM: < 20%
[4]
  EC50: ≤ 1 nM

## COc1cc(CN2CC(C(=O)O)C2)ccc1-c1ncc(-c2ccc(OC(C)C)c(Cl)c2)s1 [Example 61, 1-(4-(5-(3-chloro-4-isopropoxyphenyl)thiazol-2-yl)-3-methoxybenzyl)azetidine-3-carboxylic acid]
[1]
  EC50: ≤ 10 nM
[2]
  Emax at 1 µM: < 20%
[3]
  activation at 1 µM: < 20%
[4]
  EC50: ≤ 100 nM

## Cc1cc(-c2ncc(-c3ccc(OC(C)C)c(Cl)c3)s2)ccc1CN1CC(C(=O)O)C1 [Example 62, 1-(4-(5-(3-chloro-4-isopropoxyphenyl)thiazol-2-yl)-2-methylbenzyl)azetidine-3-carboxylic acid]
[1]
  EC50: ≤ 10 nM
[2]
  Emax at 1 µM: 20 to 50%
[3]
  activation at 1 µM: < 20%
[4]
  EC50: ≤ 1 nM

## CC(C)Oc1ccc(-c2cnc(-c3ccc(CN4CC(C(=O)O)C4)c(Cl)c3)s2)cc1Cl [Example 63, 1-(2-chloro-4-(5-(3-chloro-4-isopropoxyphenyl)thiazol-2-yl)benzyl)azetidine-3-carboxylic acid]
[1]
  EC50: ≤ 50 nM
[2]
  Emax at 1 µM: < 20%
[3]
  activation at 1 µM: < 20%
[4]
  EC50: ≤ 1 nM

## COc1cc(-c2ncc(-c3ccc(OC(C)C)c(Cl)c3)s2)ccc1CN1CC(C(=O)O)C1 [Example 64, 1-(4-(5-(3-chloro-4-isopropoxyphenyl)thiazol-2-yl)-2-methoxybenzyl)azetidine-3-carboxylic acid]
[1]
  EC50: ≤ 10 nM
[2]
  Emax at 1 µM: < 20%
[3]
  activation at 1 µM: < 20%
[4]
  EC50: ≤ 10 nM
